Results published in paper PMC5218480 (PLoS ONE, 2017).

System: MV-4-11 cells
Assay: Gene expression microarray analysis (Affymetrix PrimeView) and GSEA
Format: cell-based, human
Set-up: RFU PODN (11730768_x_at) / Fold change /veh PODN (11730768_x_at) / RFU LINC00158 (11744669_a_at) / Fold change /veh LINC00158 (11744669_a_at) / RFU DUSP10 (11751237_a_at) / Fold change /veh DUSP10 (11751237_a_at) / RFU ID3 (11757404_x_at) / Fold change /veh ID3 (11757404_x_at) / RFU PLEKHG5 (11737974_s_at) / Fold change /veh PLEKHG5 (11737974_s_at) / RFU LRRC4B (11730491_at) / Fold change /veh LRRC4B (11730491_at) / RFU GIMAP4 (11747438_a_at) / Fold change /veh GIMAP4 (11747438_a_at) / RFU KRT8 (11758183_x_at) / Fold change /veh KRT8 (11758183_x_at) / RFU CNN1 (11734310_a_at) / Fold change /veh CNN1 (11734310_a_at) / RFU VPS37D (11726825_at) / Fold change /veh VPS37D (11726825_at) / RFU C10orf10 (11716522_x_at) / Fold change /veh C10orf10 (11716522_x_at) / RFU KIR2DL2 /// KIR2DL4 /// KIR2DL5A /// KIR2DL5B /// KIR2DS1 /// KIR2DS2 /// KIR2DS3 /// KIR2DS4 /// KIR3DL3 /// KIR3DL3 /// KIR3DS1 (11738374_at) / Fold change /veh KIR2DL2 /// KIR2DL4 /// KIR2DL5A /// KIR2DL5B /// KIR2DS1 /// KIR2DS2 /// KIR2DS3 /// KIR2DS4 /// KIR3DL3 /// KIR3DL3 /// KIR3DS1 (11738374_at) / RFU C1QL1 (11718748_at) / Fold change /veh C1QL1 (11718748_at) / RFU TMPRSS4 (11747572_a_at) / Fold change /veh TMPRSS4 (11747572_a_at) / RFU HAMP (11756126_x_at) / Fold change /veh HAMP (11756126_x_at) / RFU RNFT2 (11725882_a_at) / Fold change /veh RNFT2 (11725882_a_at) / RFU NR4A2 (11747474_a_at) / Fold change /veh NR4A2 (11747474_a_at) / RFU ABCC12 (11746883_a_at) / Fold change /veh ABCC12 (11746883_a_at) / RFU TMEM136 (11760407_x_at) / Fold change /veh TMEM136 (11760407_x_at) / RFU CLDN22 /// WWC2 (11732394_at) / Fold change /veh CLDN22 /// WWC2 (11732394_at) / RFU HLA-DPB1 (11760878_x_at) / Fold change /veh HLA-DPB1 (11760878_x_at) / RFU SPINT1 (11716480_a_at) / Fold change /veh SPINT1 (11716480_a_at) / RFU GAP43 (11754022_s_at) / Fold change /veh GAP43 (11754022_s_at) / RFU A4GNT (11735810_at) / Fold change /veh A4GNT (11735810_at) / RFU PRB3 (11715151_x_at) / Fold change /veh PRB3 (11715151_x_at) / RFU TUBB4B (11761932_at) / Fold change /veh TUBB4B (11761932_at) / RFU CAPN14 (11732068_a_at) / Fold change /veh CAPN14 (11732068_a_at) / RFU TMCC2 (11721928_a_at) / Fold change /veh TMCC2 (11721928_a_at) / RFU IRGQ (11745062_a_at) / Fold change /veh IRGQ (11745062_a_at) / RFU FAM174B (11720279_a_at) / Fold change /veh FAM174B (11720279_a_at) / RFU TMPRSS4 (11748680_a_at) / Fold change /veh TMPRSS4 (11748680_a_at) / RFU FAM212B (11763350_a_at) / Fold change /veh FAM212B (11763350_a_at) / RFU PLEKHG5 (11743358_a_at) / Fold change /veh PLEKHG5 (11743358_a_at) / RFU ZSCAN30 (11745921_a_at) / Fold change /veh ZSCAN30 (11745921_a_at) / RFU CMKLR1 (11741424_a_at) / Fold change /veh CMKLR1 (11741424_a_at) / RFU LOC101060620 /// MAPK8IP1 (11723275_at) / Fold change /veh LOC101060620 /// MAPK8IP1 (11723275_at) / RFU SPTSSB (11747773_x_at) / Fold change /veh SPTSSB (11747773_x_at) / RFU PRSS12 (11739890_at) / Fold change /veh PRSS12 (11739890_at) / RFU BIN1 (11741810_x_at) / Fold change /veh BIN1 (11741810_x_at) / RFU WNT11 (11732464_a_at) / Fold change /veh WNT11 (11732464_a_at) / RFU C10orf10 (11716521_a_at) / Fold change /veh C10orf10 (11716521_a_at) / RFU C5orf56 (11738089_at) / Fold change /veh C5orf56 (11738089_at) / RFU CYB561 (11721691_x_at) / Fold change /veh CYB561 (11721691_x_at) / RFU ANKRD19P (11752326_a_at) / Fold change /veh ANKRD19P (11752326_a_at) / RFU OR2T12 /// OR2T33 /// OR2T8 (11738714_s_at) / Fold change /veh OR2T12 /// OR2T33 /// OR2T8 (11738714_s_at) / RFU VCAN (11748164_a_at) / Fold change /veh VCAN (11748164_a_at) / RFU JSRP1 (11732532_at) / Fold change /veh JSRP1 (11732532_at) / RFU KRTAP10-11 (11738290_x_at) / Fold change /veh KRTAP10-11 (11738290_x_at) / RFU MYO3A (11730013_a_at) / Fold change /veh MYO3A (11730013_a_at) / RFU EBF3 (11725865_a_at) / Fold change /veh EBF3 (11725865_a_at) / RFU CAMK2N1 (11719241_x_at) / Fold change /veh CAMK2N1 (11719241_x_at) / RFU C5orf56 (11738088_a_at) / Fold change /veh C5orf56 (11738088_a_at) / RFU OLFML3 (11715873_a_at) / Fold change /veh OLFML3 (11715873_a_at) / RFU LOC100653217 /// NTM (11731650_a_at) / Fold change /veh LOC100653217 /// NTM (11731650_a_at) / RFU MAPK11 (11762145_a_at) / Fold change /veh MAPK11 (11762145_a_at) / RFU FIZ1 (11724087_x_at) / Fold change /veh FIZ1 (11724087_x_at) / RFU OASL (11726364_x_at) / Fold change /veh OASL (11726364_x_at) / RFU SOX15 (11748057_x_at) / Fold change /veh SOX15 (11748057_x_at) / RFU CD79A (11719716_a_at) / Fold change /veh CD79A (11719716_a_at) / RFU HIST1H1D (11736915_at) / Fold change /veh HIST1H1D (11736915_at) / RFU CASKIN2 (11723855_a_at) / Fold change /veh CASKIN2 (11723855_a_at) / RFU LOC730098 (11760151_x_at) / Fold change /veh LOC730098 (11760151_x_at) / RFU OR4N2 (11742367_at) / Fold change /veh OR4N2 (11742367_at) / RFU PRRT2 (11749266_a_at) / Fold change /veh PRRT2 (11749266_a_at) / RFU SNX32 (11753110_a_at) / Fold change /veh SNX32 (11753110_a_at) / RFU CDHR5 (11726645_a_at) / Fold change /veh CDHR5 (11726645_a_at) / RFU RCAN1 (11760418_a_at) / Fold change /veh RCAN1 (11760418_a_at) / RFU FAM167A (11723789_a_at) / Fold change /veh FAM167A (11723789_a_at) / RFU FAM26E (11764081_at) / Fold change /veh FAM26E (11764081_at) / RFU ISYNA1 (11749810_s_at) / Fold change /veh ISYNA1 (11749810_s_at) / RFU ACY1 (11761880_at) / Fold change /veh ACY1 (11761880_at) / RFU 11764098_at / Fold change /veh 11764098_at / RFU SAMD14 (11745864_x_at) / Fold change /veh SAMD14 (11745864_x_at) / RFU NPB (11741838_a_at) / Fold change /veh NPB (11741838_a_at) / RFU TMPRSS6 (11731388_a_at) / Fold change /veh TMPRSS6 (11731388_a_at) / RFU KRTAP10-2 (11738614_at) / Fold change /veh KRTAP10-2 (11738614_at) / RFU ARHGAP8 /// PRR5-ARHGAP8 (11727945_x_at) / Fold change /veh ARHGAP8 /// PRR5-ARHGAP8 (11727945_x_at) / RFU KRTAP5-7 /// NADSYN1 (11734609_at) / Fold change /veh KRTAP5-7 /// NADSYN1 (11734609_at) / RFU RASL12 (11751679_a_at) / Fold change /veh RASL12 (11751679_a_at) / RFU CDKN2B (11736163_a_at) / Fold change /veh CDKN2B (11736163_a_at) / RFU PRF1 (11729649_at) / Fold change /veh PRF1 (11729649_at) / RFU, ZNF638 /// ZNF638-IT1 / Fold change vs veh, ZNF638 /// ZNF638-IT1 / RFU, PANK3 / Fold change vs veh, PANK3 / RFU, SH3YL1 / Fold change vs veh, SH3YL1 / RFU, ZEB2 / Fold change vs veh, ZEB2 / RFU, NRIP1 / Fold change vs veh, NRIP1 / RFU, PTTG1IP / Fold change vs veh, PTTG1IP / RFU, CAPN2 / Fold change vs veh, CAPN2 / RFU, MED14 / Fold change vs veh, MED14 / RFU, SNORA58 / Fold change vs veh, SNORA58 / RFU, C1orf63 / Fold change vs veh, C1orf63 / RFU, LRRFIP1 / Fold change vs veh, LRRFIP1 / RFU, NDUFAF7 / Fold change vs veh, NDUFAF7 / RFU, SLC12A2 / Fold change vs veh, SLC12A2 / RFU, IBTK / Fold change vs veh, IBTK / RFU, ESF1 / Fold change vs veh, ESF1 / Fold change vs veh, TMEM50B / RFU, TAOK1 / Fold change vs veh, TAOK1 / RFU, ACBD3 / Fold change vs veh, ACBD3 / RFU, TMA16 / Fold change vs veh, TMA16 / RFU, RWDD3 / Fold change vs veh, RWDD3 / RFU, BCAT1 / Fold change vs veh, BCAT1 / RFU, EDEM3 / Fold change vs veh, EDEM3 / RFU, TMEM33 / Fold change vs veh, TMEM33 / RFU, WDR75 / Fold change vs veh, WDR75 / RFU, AHCTF1 / Fold change vs veh, AHCTF1 / RFU, TFRC / Fold change vs veh, TFRC / RFU, ZDHHC17 / Fold change vs veh, ZDHHC17 / RFU, NOM1 / Fold change vs veh, NOM1 / RFU, ARL8B / Fold change vs veh, ARL8B / RFU, ZBTB11 / Fold change vs veh, ZBTB11 / RFU, TAMM41 / Fold change vs veh, TAMM41 / RFU, KIAA1704 /// LOC100996395 / Fold change vs veh, KIAA1704 /// LOC100996395 / RFU, ING1 / Fold change vs veh, ING1 / RFU, TRMT61B / Fold change vs veh, TRMT61B / RFU, FUBP3 / Fold change vs veh, FUBP3 / RFU, TP53 / Fold change vs veh, TP53 / RFU, TNKS2 / Fold change vs veh, TNKS2 / RFU, ZFP14 / Fold change vs veh, ZFP14 / RFU, ACTR2 / Fold change vs veh, ACTR2 / RFU, PPP3R1 / Fold change vs veh, PPP3R1 / RFU, PIK3R1 / Fold change vs veh, PIK3R1 / RFU, HNRNPA1 / Fold change vs veh, HNRNPA1 / RFU, RNF170 / Fold change vs veh, RNF170 / RFU, ZNF28 / Fold change vs veh, ZNF28 / RFU, RNGTT / Fold change vs veh, RNGTT / RFU, OGT / Fold change vs veh, OGT / RFU, BRD1 / Fold change vs veh, BRD1 / RFU, MARS / Fold change vs veh, MARS / RFU, ZNF655 / Fold change vs veh, ZNF655 / RFU, FAHD1 / Fold change vs veh, FAHD1 / RFU, BDP1 / Fold change vs veh, BDP1 / RFU, LRRCC1 / Fold change vs veh, LRRCC1 / RFU, ARID1A / Fold change vs veh, ARID1A / RFU, ZNF146 / Fold change vs veh, ZNF146 / RFU, ZNF330 / Fold change vs veh, ZNF330 / RFU, GPN3 / Fold change vs veh, GPN3 / RFU, C9orf123 / Fold change vs veh, C9orf123 / RFU, N4BP2L2 / Fold change vs veh, N4BP2L2 / RFU, ARFIP1 / Fold change vs veh, ARFIP1 / RFU, FAM179B / Fold change vs veh, FAM179B / RFU, BCL10 / Fold change vs veh, BCL10 / RFU, UHRF1BP1L / Fold change vs veh, UHRF1BP1L / RFU, BET1 / Fold change vs veh, BET1 / RFU, CNOT2 / Fold change vs veh, CNOT2 / RFU, ZNF268 / Fold change vs veh, ZNF268 / Fold change vs veh, ZNF507 / RFU, DGCR2 / Fold change vs veh, DGCR2 / RFU, WDSUB1 / Fold change vs veh, WDSUB1 / Fold change vs veh, HSP90B1 /// MIR3652 / RFU, ADSS / Fold change vs veh, ADSS / RFU, GK / Fold change vs veh, GK / RFU, ZNF148 / Fold change vs veh, ZNF148 / RFU, TAF9 / Fold change vs veh, TAF9 / RFU, SLC1A5 / Fold change vs veh, SLC1A5 / RFU, SLMO2 / Fold change vs veh, SLMO2 / RFU, ABCC4 / Fold change vs veh, ABCC4 / RFU, LOC101060439 /// RAP1B / Fold change vs veh, LOC101060439 /// RAP1B / RFU, RFX7 / Fold change vs veh, RFX7 / RFU, GTPBP10 / Fold change vs veh, GTPBP10 / RFU, CNEP1R1 / Fold change vs veh, CNEP1R1 / RFU, BIVM-ERCC5 /// ERCC5 / Fold change vs veh, BIVM-ERCC5 /// ERCC5 / RFU, ILF3 / Fold change vs veh, ILF3 / RFU 11762660_at / Fold change /veh 11762660_at / RFU VCAN (11757783_s_at) / Fold change /veh VCAN (11757783_s_at) / RFU DDX43 (11728927_at) / Fold change /veh DDX43 (11728927_at) / RFU KRT8 (11758188_x_at) / Fold change /veh KRT8 (11758188_x_at) / RFU NKD1 (11759106_at) / Fold change /veh NKD1 (11759106_at) / RFU SRD5A1 (11742802_a_at) / Fold change /veh SRD5A1 (11742802_a_at) / RFU TPSAB1 /// TPSB2 (11721975_s_at) / Fold change /veh TPSAB1 /// TPSB2 (11721975_s_at) / RFU GSTM3 (11746129_a_at) / Fold change /veh GSTM3 (11746129_a_at) / RFU IL23R (11737362_x_at) / Fold change /veh IL23R (11737362_x_at) / RFU TMEM51 (11727254_a_at) / Fold change /veh TMEM51 (11727254_a_at) / RFU PIWIL2 (11732686_x_at) / Fold change /veh PIWIL2 (11732686_x_at) / RFU ORM1 (11744905_x_at) / Fold change /veh ORM1 (11744905_x_at) / RFU CCDC152 (11743942_at) / Fold change /veh CCDC152 (11743942_at) / RFU ECM1 (11717891_a_at) / Fold change /veh ECM1 (11717891_a_at) / RFU IL23R (11748794_a_at) / Fold change /veh IL23R (11748794_a_at) / RFU TNFAIP8L3 (11732012_x_at) / Fold change /veh TNFAIP8L3 (11732012_x_at) / RFU MBOAT4 (11741988_at) / Fold change /veh MBOAT4 (11741988_at) / RFU 11764193_at / Fold change /veh 11764193_at / RFU TMEM53 (11763286_at) / Fold change /veh TMEM53 (11763286_at) / RFU MAGEB2 (11727129_at) / Fold change /veh MAGEB2 (11727129_at) / RFU TMEM200A (11744735_a_at) / Fold change /veh TMEM200A (11744735_a_at) / RFU CCDC152 (11751479_a_at) / Fold change /veh CCDC152 (11751479_a_at) / RFU FAM211A (11726209_a_at) / Fold change /veh FAM211A (11726209_a_at) / RFU RGS16 (11746705_a_at) / Fold change /veh RGS16 (11746705_a_at) / RFU VCAN (11755009_s_at) / Fold change /veh VCAN (11755009_s_at) / RFU RHOB (11743442_s_at) / Fold change /veh RHOB (11743442_s_at) / RFU RGS16 (11720943_a_at) / Fold change /veh RGS16 (11720943_a_at) / RFU RGS16 (11720944_at) / Fold change /veh RGS16 (11720944_at) / RFU, VPS4B / Fold change vs veh, VPS4B / RFU, CREB1 / Fold change vs veh, CREB1 / RFU, DNAJC13 / Fold change vs veh, DNAJC13 / RFU, GNAQ / Fold change vs veh, GNAQ / RFU, CDK5R1 / Fold change vs veh, CDK5R1 / RFU, ZRANB3 / Fold change vs veh, ZRANB3 / RFU, CUL4A / Fold change vs veh, CUL4A / RFU, CCNY / Fold change vs veh, CCNY / RFU, UFL1 / Fold change vs veh, UFL1 / RFU, COG3 / Fold change vs veh, COG3 / RFU, DIAPH2 / Fold change vs veh, DIAPH2 / RFU, SKA2 / Fold change vs veh, SKA2 / RFU, AFF3 / Fold change vs veh, AFF3 / RFU, LMF1 / Fold change vs veh, LMF1 / RFU, IPO11 / Fold change vs veh, IPO11 / RFU, DFFB / Fold change vs veh, DFFB / RFU, FOXP1 / Fold change vs veh, FOXP1 / RFU, CARD8 / Fold change vs veh, CARD8 / RFU, STRN3 / Fold change vs veh, STRN3 / RFU, ADK / Fold change vs veh, ADK / RFU, RASSF2 / Fold change vs veh, RASSF2 / RFU, WIPF1 / Fold change vs veh, WIPF1 / RFU, LARP1B / Fold change vs veh, LARP1B / RFU, RASA1 / Fold change vs veh, RASA1 / RFU, RB1 / Fold change vs veh, RB1 / RFU, PPFIA1 / Fold change vs veh, PPFIA1 / RFU, MAT2A / Fold change vs veh, MAT2A / RFU, CCT5 / Fold change vs veh, CCT5 / RFU, WDR92 / Fold change vs veh, WDR92 / RFU, CUX1 / Fold change vs veh, CUX1 / RFU, TTC7A / Fold change vs veh, TTC7A / RFU, TMEM135 / Fold change vs veh, TMEM135 / RFU, DEPTOR / Fold change vs veh, DEPTOR / RFU, CPM / Fold change vs veh, CPM / RFU, DNAJB6 / Fold change vs veh, DNAJB6 / RFU, CACNA2D3 / Fold change vs veh, CACNA2D3 / RFU, DTX4 / Fold change vs veh, DTX4 / RFU, TFCP2 / Fold change vs veh, TFCP2 / RFU, GMCL1 /// GMCL1P1 / Fold change vs veh, GMCL1 /// GMCL1P1 / RFU, AEBP2 / Fold change vs veh, AEBP2 / RFU, SNHG1 /// SNORD22 /// SNORD25 /// SNORD26 /// SNORD27 /// SNORD28 /// SNORD29 /// SNORD31 / Fold change vs veh, SNHG1 /// SNORD22 /// SNORD25 /// SNORD26 /// SNORD27 /// SNORD28 /// SNORD29 /// SNORD31 / Fold change (Aza/veh), C12orf56 (ProbeSet 11735607_a_at) / Fold change (ACY-1035/veh), C12orf56 (ProbeSet 11735607_a_at) / Fold change (Aza/veh), FGFR1OP (ProbeSet 11751329_s_at) / Fold change (ACY-1035/veh), FGFR1OP (ProbeSet 11751329_s_at) / Fold change (Aza/veh), VPS36 (ProbeSet 11739960_a_at) / Fold change (ACY-1035/veh), VPS36 (ProbeSet 11739960_a_at) / RFU SYPL1 (11715823_x_at) / Fold change /veh SYPL1 (11715823_x_at) / RFU IGFBP7 (11715501_s_at) / Fold change /veh IGFBP7 (11715501_s_at) / RFU REEP3 (11722064_at) / Fold change /veh REEP3 (11722064_at) / RFU IGLL1 (11728026_x_at) / Fold change /veh IGLL1 (11728026_x_at): dose or concentration left out as unconfirmed
Details: MV-4-11 cells, 48 hours

Nc1ccc(-c2cccs2)cc1NC(=O)c1ccc2c(c1)cc(C1CC1)n2CCN1CCOCC1 [ACY-1035]
RFU KRTAP5-7 /// NADSYN1 (11734609_at): 11.39 RFU
